Measurements reported in patent publication US8598173B2, “1-[(6,7-substituted alkoxyquinoxalinyl)aminocarbonyl]-4-(hetero)arylpiperazine derivatives for treating tumors” (Korea Research Institute of Chemical Technology, priority 2004, dated 2013).
Where two headings read alike, the source gives them in different places.

Assays:
HT-29 (colon) = test: Cell growth inhibition assay (SRB), HT-29; type: cell-based; details: Homo sapiens, SRB method, 96 hours incubation
Procedure: (§1) OVCAR-3, MCF-7, PC3, HepG2, A549, HT-29 and MKN-45 were grown in RPMI1640 medium (Invitrogen, Carlsbad, Calif.) supplemented with 10% fetal bovine serum (‘FBS’), 1 mM sodium pyruvate, 10 mM HEPES and 100 U/ml penicillin and […] streptomycin (‘P/S’). MDA-MB-231, HCT116, UMRC2, Caki-1, PANC-1 and HEK293 cells were maintained in Dulbecco's modified Eagle's medium (‘DMEM’, Invitrogen) supplemented with 10% FBS, P/S, 10 mM HEPES and 2 mM L-glutamine. HUVEC was maintained in M199 supplemented with basic fibroblast growth factor (‘bFGF’) […] and FBS 20%. All cells were incubated at 37° C. under humidified 5% CO2.
(§2) The growth inhibition of the substituted quinoxalin-piperazine compounds against a variety of human tumor cells was evaluated. The relative importance of particular substituent groups on the compounds was also studied. The substituted piperazine derivative compounds, prepared as described above, were tested, along with DMSO as a control.
(§3) The growth inhibition assay of various compounds against human tumor cell lines was performed using the Sulforhodamine B (‘SRB’) method (Skehan et al., J. National Cancer Institute, 1990, 82, 1107-1112). […] Triplicate wells were used for each treatment. The cells were incubated with the various compounds for 96 hours at 37° C. in a humidified 5% CO2 atmosphere. After 96-hour incubation, cells were fixed with 10% trichloroacetic acid (‘TCA’), incubated for 1 hour at 4° C., and washed 3 times with tap water. Subsequently cells were stained with 0.4% sulforhodamine B in 1% acetic acid for 30 minutes, washed 4 times with 1% acetic acid, and air-dried again. After 5 minutes agitation in 10 mM Tris solution, the absorbance of each well was measured at 530 nm using Benchmark Plus Microplate reader (Bio-Rad Laboratories, Hercules, Calif.).
(§4) To translate the OD530 values into the number of live cells in each well, the OD530 values were compared to those on standard OD530-versus-cell number curves generated for each cell line. The percent survival was calculated using the formula: % Survival=live cell number[test]/live cell number[control]×100
(§5) The IC50 values were calculated by non-linear regression analysis.

[1] = test system: Huvec (human umbilical vein endothelial cells); test: Cell growth inhibition assay (SRB), Huvec; type: cell-based; details: SRB method, 96 hours incubation
Procedure: as §1, §2, §3, §4, §5

MDA-MB-231 (breast) = test: Cell growth inhibition assay (SRB), MDA-MB-231; type: cell-based, human; details: Homo sapiens, SRB method, 96 hours incubation
Procedure: as §1, §2, §3, §4, §5

UMRC2 (kidney) = test: Cell growth inhibition assay (SRB), UMRC2; type: cell-based, human; details: Homo sapiens, SRB method, 96 hours incubation
Procedure: as §1, §2, §3, §4, §5

SK-OV-3 (ovary) = test: Cell growth inhibition assay (SRB), SK-OV-3; type: cell-based; details: Homo sapiens, SRB method, 96 hours incubation
Procedure: as §1, §2, §3, §4, §5

PANC-1 (pancreas) = test: Cell growth inhibition assay (SRB), PANC-1; type: cell-based, human; details: Homo sapiens, SRB method, 96 hours incubation
Procedure: as §1, §2, §3, §4, §5

[2] = test system: HEK293 (human embryonic kidney); test: Cell growth inhibition assay (SRB), HEK293; type: cell-based; details: SRB method, 96 hours incubation
Procedure: as §1, §2, §3, §4, §5

A549 (lung) = test: Cell growth inhibition assay (SRB), A549; type: cell-based; details: Homo sapiens, SRB method, 96 hours incubation
Procedure: as §1, §2, §3, §4, §5

PC3 (prostate) = test: Cell growth inhibition assay (SRB), PC3; type: cell-based; details: Homo sapiens; SRB method, 96 hours incubation, PC3 (prostate); read-out: IC50, PC3
Procedure: as §1, §2, §3, §4, §5

[3] = test system: MCF-7 (breast, hormone-dependent); test: Cell growth inhibition assay (SRB), MCF-7; type: cell-based; details: Homo sapiens, MCF7; SRB method, 96 hours incubation, MCF-7 (breast, hormone-dependent); read-out: IC50, MCF-7
Procedure: as §1, §2, §3, §4, §5

Caki-1 (kidney) = test: Cell growth inhibition assay (SRB), Caki-1; type: cell-based; details: Homo sapiens; SRB method, 96 hours incubation, Caki-1 (kidney); read-out: IC50, Caki-1
Procedure: as §1, §2, §3, §4, §5

HepG2 (liver) = test: Cell growth inhibition assay (SRB), HepG2; type: cell-based; details: Homo sapiens; SRB method, 96 hours incubation, HepG2 (liver); read-out: IC50, HepG2
Procedure: as §1, §2, §3, §4, §5

HCT116 (colon) = test: Cell growth inhibition assay (SRB), HCT116; type: cell-based; details: Homo sapiens, HCT-116; SRB method, 96 hours incubation, HCT116 (colon); read-out: IC50, HCT116
Procedure: as §1, §2, §3, §4, §5

MKN-45 (stomach) = test: Cell growth inhibition assay (SRB), MKN-45; type: cell-based; details: Homo sapiens; SRB method, 96 hours incubation, MKN-45 (stomach); read-out: IC50, MKN-45
Procedure: as §1, §2, §3, §4, §5

OVCAR-3 (ovary) = test: Cell growth inhibition assay (SRB), OVCAR-3; type: cell-based; details: Homo sapiens; SRB method, 96 hours incubation, OVCAR-3 (ovary); read-out: IC50, OVCAR-3
Procedure: as §1, §2, §3, §4, §5

[4] = HT-29 (colon), read-out: IC50, HT-29
[5] = MDA-MB-231 (breast), read-out: IC50, MDA-MB-231
[6] = UMRC2 (kidney), read-out: IC50, UMRC2
[7] = SK-OV-3 (ovary), read-out: IC50, SK-OV-3
[8] = PANC-1 (pancreas), read-out: IC50, PANC-1
[9] = HEK293 (human embryonic kidney), read-out: IC50, HEK293
[10] = A549 (lung), read-out: IC50, A549

Structure (SMILES)	IC50 (PC3 (prostate)) [nM]	IC50 (HT-29 (colon); [4]) [µM]	IC50 ([1]; read-out: IC50, Huvec) [µM]	IC50 (MDA-MB-231 (breast); [5]) [µM]	IC50 [3] [nM]	IC50 (UMRC2 (kidney); [6]) [µM]	IC50 (Caki-1 (kidney)) [nM]	IC50 (SK-OV-3 (ovary); [7]) [µM]	IC50 (PANC-1 (pancreas); [8]) [µM]	IC50 [2, 9] [µM]	IC50 (HepG2 (liver)) [nM]	IC50 (HCT116 (colon)) [nM]	IC50 (MKN-45 (stomach)) [nM]	IC50 (OVCAR-3 (ovary)) [nM]	IC50 (A549 (lung); [10]) [µM]	also measured
COc1cccc(N2CCN(C(=O)Nc3nc4cc(C)ccc4nc3OC)CC2)c1 [Compound 45, 1-[(2-Methoxy-6-methylquinoxalin-3-yl)aminocarbonyl]-4-(3-methoxyphenyl)piperazine]																IC50 (HT-29 (colon); HT-29, HT29, read-out: Inhibition of cell growth (IC50, μM) by quinoxaline-piperazine compounds against human cancer cell lines: HT29): 0.05 µM; IC50 ([1]; read-out: Inhibition of cell growth (IC50, μM) by quinoxaline-piperazine compounds against human cancer cell lines: Huvec): 0.5 µM; IC50 (MDA-MB-231 (breast); MDA-MB-231, read-out: Inhibition of cell growth (IC50, μM) by quinoxaline-piperazine compounds against human cancer cell lines: MDA-MB-231): 0.27 µM; IC50 (UMRC2 (kidney); UMRC2, read-out: Inhibition of cell growth (IC50, μM) by quinoxaline-piperazine compounds against human cancer cell lines: UMRC2): 0.45 µM; IC50 (SK-OV-3 (ovary); SK-OV-3, read-out: Inhibition of cell growth (IC50, μM) by quinoxaline-piperazine compounds against human cancer cell lines: SK-OV-3): 1 µM; IC50 (PANC-1 (pancreas); PANC-1, read-out: Inhibition of cell growth (IC50, μM) by quinoxaline-piperazine compounds against human cancer cell lines: PANC-1): 1.31 µM; IC50 ([2]; Homo sapiens, Hek293, read-out: Inhibition of cell growth (IC50, μM) by quinoxaline-piperazine compounds against human cancer cell lines: Hek293): 0.5 µM; IC50 (A549 (lung); A549, read-out: Inhibition of cell growth (IC50, μM) by quinoxaline-piperazine compounds against human cancer cell lines: A549): 0.25 µM
COc1nc2cc(F)ccc2nc1NC(=O)N1CCN(c2cc(C)cc(C)c2)CC1 [Compound 94, 1-[(6-Fluoro-3-methoxyquinoxalin-2-yl)aminocarbonyl]-4-(3,5-dimethylphenyl)piperazine]	700	0.89	0.16	0.41	360	0.32	330	0.5	0.56	0.57	480	400	250	290	0.42	
COc1nc2cc(Cl)ccc2nc1NC(=O)N1CCN(c2cc(C)cc(C)c2)CC1 [Compound 115, 1-[(6-Chloro-3-methoxyquinoxalin-2-yl)aminocarbonyl]-4-(3,5-dimethylphenyl)piperazine]	620	0.46	0.52	0.13	450	0.11	310	0.5	0.17	0.5	410	450	430	310	0.59	
COc1nc2cc(C)ccc2nc1NC(=O)N1CCN(c2cc(C)cc(C)c2)CC1 [Compound 136, 1-[(3-Methoxy-6-methylquinoxalin-2-yl)aminocarbonyl]-4-(3,5-dimethylphenyl)piperazine]	250	0.24	0.15	0.045	210	0.057	130	0.1	0.28	0.24	190	200	180	140	0.21	
COc1ccc2nc(NC(=O)N3CCN(c4cc(C)cc(C)c4)CC3)c(OC)nc2c1 [Compound 157, 1-[(3,6-Dimethoxyquinoxalin-2-yl)aminocarbonyl]-4-(3,5-dimethylphenyl)piperazine]	580	0.78	0.15	0.41	210	0.27	300	0.5	0.47	0.53	560	380	270	290	2.5	
